Source: patent US20230212517A1, “METHODS FOR GENERATING HEMATOPOIETIC STEM CELLS” (The Brigham and Women's Hospital, Inc., priority 2018, published 2023)

Tests used:
[1] = system: cd41:eGFP+ HSCs emerging from flk1:mCherry+ endothelial cells; test: Time-lapse confocal imaging of cd41:eGFP+ HSCs emerging from flk1:mCherry+ endothelial cells in transgenic embryos; format: in vivo, zebrafish; conditions: 26-42 hpf
Experimental: Mice were purchased Cd45.2 (C57BL6/J) and Cd45.1 (SJL) from The Jackson Laboratory and zebrafish morpholinos from GeneTools. Microangiography was performed by injecting fluorescent-labeled dextran dye in the atrium of zebrafish heart and its passage was recorded using live imaging. Immunostaining of zebrafish heart and mouse AGM were analyzed using an inverted fluorescent microscope. Cardiac tamponade, heart rate, and pulse frequency were analyzed in zebrafish embryos using bright field imaging or time-lapse confocal microscopy. The movement of red blood cells in blood vessels was analyzed as well as the endothelial-to-HSC transition in zebrafish transgenic embryos using time-lapse confocal imaging.
Zebrafish embryos were treated with the following chemical modulators in E3 fish media: 100 uM L-NAME (Fisher Scientific), 50 uM Digitoxigenin (Sigma), 25-50 uM Yoda1 (Cayman Chemical), 1 uM Nanaomycin (Nana; Fisher Scientific), 100 uM Gadolinium chloride (GdCl3; Sigma), 5-10 uM 4α-phorbol 12, 13-didecanaote (4Apdd; Sigma), or GSK205 (10 uM).
cd41: eGFP were crossed with flk1:mCherry zebrafish and flk1:mCherry with lcr:eGFP zebrafish and injected morpholino in their transgenic embryos. Transgenic embryos were mounted in low-melting-point agarose and a spinning-disk confocal microscope was used to perform time-lapse confocal imaging of cd41:eGFP^+ HSCs emerging from flk1^+ endothelium from 30 to 42 hpf. The relative movement of lcr:eGFP^+ red blood cells was analyzed in the context of flk1:mCherry^+ endothelium. We performed image analysis using IMARIS (Bitplane) software.

E11.5 AGM-derived HSCs = test: Serial transplantation of treated E11.5 AGM-derived HSCs into lethally irradiated mice; format: in vivo, mouse; conditions: for multi-lineage reconstitution (myeloid, T-cells, B-cells) in primary transplant / peripheral blood chimerism / engraftment in primary transplant: primary recipients; for multi-lineage reconstitution (myeloid, T-cells, B-cells) in primary transplant: week 16; for peripheral blood chimerism / engraftment in primary transplant: weeks 8-16, three embryo equivalent treated AGM donor cells
Experimental: (§1) Pulsating blood vessels like conditions were stimulated in vitro using FLEXCELL FX-4000 cell stretching bioreactor machine. To analyze roles of pharmacological targets in regulating the endothelial-to-HSC transition, mouse embryo-derived AGM or whole mouse embryo were exposed ex vivo with biomechanical stretching, chemicals, or drugs. Next, hematopoietic colony formation assays were performed by incubating mouse AGM-derived cells in StemCell M3434 media for seven days. Serial transplantation of AGM-derived HSCs in lethally irradiated SJL mice were performed. The stem cell frequency upon biomechanical stretching was analyzed using a limiting dilution assay. To characterize properties of AGM-HSC-derived blood cells in primary transplants, percentage chimerism and reconstitution was measured using FACS, globin transcripts were analyzed using quantitative reverse transcriptase-PCR, myeloperoxidase amount was measured using PICOKINE ELISA kit, TCR-β rearrangement was analyzed using PCR for TCR-β locus, pre-immune IG detection was analyzed using Thermo-Fisher Mouse Ig Isotyping kit, and delayed-type hypersensitivity was analyzed by injecting sheep RBC (Rockland Immunochemicals) in the footpad of pre-sensitized mice.
For primary transplantation, three-embryo equivalents of untreated or treated (cyclic strain or 25 μM Yoda1) AGMs plus splenic helper cells (˜500,000 per mouse) were injected into lethally irradiated (split dose […]) Cd45.1 (SJL) mice by retro-orbital injection. For secondary and tertiary transplants, the bone marrow was isolated (legs, arm, pelvic bone, spine, sternum) from the transplanted mice. The bone marrow was loaded on a FICOLL gradient (HISTOPAQUE-1083 solution, Sigma-Aldrich), and the cells from the buffy coat incubated with biotin-conjugated lineage antibodies and streptavidin microbeads (Miltenyi Biotec). Next, the lineage negative (Lin) cells were separated with MACS LS Columns (Miltenyi Biotec), and the donor Cd45.2 Lin^−Sca1^+-Kit^+ (LSK) cells sorted with a MoFlo Beckman Coulter sorter. Subsequently, the sorted Cd45.2 LSK cells were mixed with Cd45.1 splenic helper cells (˜500,000 per mouse) and transplanted into Cd45.1 irradiated (split dose […]) SJL mice by retro-orbital injection.
AGM cells from explants and ex vivo were stained with Sca1-Pacific-Blue (E13-161.7, Biolegend) and Flk1-APC-Cy7 (Avas 12α1, BD). Blood from transplanted mice was stained with the following antibody cocktail: Cd45.2-Pacific-Blue (104, Biolegend), Cd45.1-FITC (A20, Biolegend), Cd3-PE (145-2C11, Biolegend), Cd8-PE (53-6.7, Biolegend), Mac1-APC (M1/70, Biolegend), Gr1-APC (108412, Biolegend), Cd19-APC-CY7 (6D5, Biolegend), B220-APC-CY7 (RA3-6B2, Biolegend).
Cells from the bone marrow, spleen, thymus, and lymph node from mice transplanted with E11.5 AGM cells were stained with the following antibody panels: Bone marrow LT-HSC: Cd45.2-FITC (104, Biolegend), Ter119-Biotin (TER-119 BD), Gr1-Biotin (RB6-8C5, BD), Cd5-Biotin (53-7.3, BD), Cd8a-Biotin (53-6.7, BD), B220-Biotin (RA3-6B2, BD), Streptavidin-Pacific Blue (eBioscience), Sca1-PE-CY7 (D7, eBioscience), cKit-APC (2B8, eBioscience), Cd48-APC-CY7 (HM48-1, BD), Cd150-PE-CY5 (TC15-12F12.2, Biolegend). Erythroid development RI-RV in bone marrow: Cd45.2-Pacific-Blue (104, Biolegend), Cd45.1-FITC (A20, Biolegend), Ter119-APC (TER-119, Biolegend), Cd71-PE (R17217, eBioscience). Bone marrow granulocytes: Cd45.2-Pacific-Blue (104, Biolegend), Cd45.1-FITC (A20, Biolegend), Gr1-PE, (RB6-8C5, BD); Mac1-APC (M1/70, Biolegend). Spleen, thymus and lymph nodes T Cells: Cd45.2-Pacific-Blue (104, Biolegend), Cd45.1-FITC (A20, Biolegend), Cd8-PE (53-6.7, Biolegend), Cd4-APC (RM4-5, eBioscience). Spleen, thymus and lymph node myeloid and B cells: Cd45.2-Pacific-Blue (104, Biolegend), Cd45.1-FITC (A20, Biolegend), Cd19-APC-CY7 (6D5, Biolegend), Mac1-APC (M1/70, Biolegend). We performed all FACS analyses on a BD Fortessa cytometer. […]

[2] = system: spleen-sorted Cd3+ T cells (donor); test: PCR assay for TCR-β rearrangement in donor T cells of primary transplant; format: in vivo, mouse; conditions: primary transplant of treated E11.5 AGM; Mac1+ myeloid cells negative control
Experimental: as §1
T cells (Cd45.2^+, Cd3^+) and myeloid cells (Cd45.2^+, Mac1^+) were FACS sorted from the splenocytes of 16 week-primary transplanted mice. […]

## Clc1cccc(Cl)c1CSc1nnc(-c2cnccn2)s1 [Yoda1, 2-[5-[[(2,6-Dichlorophenyl)methyl]thio]-1,3,4-thiadiazol-2-yl]-pyrazine]
[1]; control embryos
  HSC formation (endothelial-to-HSC transition): stimulates HSC formation
[1]; sih-MO embryos
  HSC formation (endothelial-to-HSC transition): rescues HSC formation
E11.5 AGM-derived HSCs
  multi-lineage reconstitution (myeloid, T-cells, B-cells) in primary transplant: stimulates the formation of HSCs that reconstitute to the blood
  peripheral blood chimerism / engraftment in primary transplant: stimulates the formation of HSCs
E11.5 AGM-derived HSCs; listed as Piezo1 activator
  multi-lineage reconstitution (myeloid, T-cells, B-cells) in primary transplant: normal multi-lineage reconstitution
  peripheral blood chimerism / engraftment in primary transplant: higher engraftment
E11.5 AGM-derived HSCs; secondary recipients, week 12
  multi-lineage reconstitution in secondary transplant: produces HSCs that can serially reconstitute to the blood
E11.5 AGM-derived HSCs; secondary recipients, weeks 8-12, 2000 sorted Lin-Sca1+c-Kit+ HSPCs
  peripheral blood chimerism in secondary transplant: produces HSCs that have serial engraftment and self-renewal capacities
E11.5 AGM-derived HSCs; vs. control AGM
  amount of Lin-Sca1+c-Kit+Cd48-Cd150+ HSCs in bone marrow of primary recipients: two- to three-times higher amount
[2]
  T-cell receptor β (TCRβ) locus rearrangement in donor T-cells: display T-cell receptor β (TCR β) rearrangement
